These are literature values, as cited in patent US20240101656A1, “PLK1 INHIBITOR IN COMBINATION WITH ANTI-ANGIOGENICS FOR TREATING METASTATIC CANCER” (CARDIFF ONCOLOGY, INC., priority 2022, published 2024).

Where two headings read alike, the source gives them in different places. A value given as a limit tells only on which side of the number the result lay.

In series [1] the test system is patients with advanced/metastatic solid tumors.
Another series concerns the target PLK1 (Homo sapiens, UniProt P53350).
The test system of a further series is xenograft models of AML. To be noted: in vivo.
In series [2] the test system is disseminated models of AML.
In series [3] the test system is cell lines, both from solid as well as hematologic tumors.
A further series deals with xenograft tumor. As to conditions: well tolerated doses, oral administration.
Series [4] relates to HT29 human colon adenocarcinoma xenografts. To be noted: combination therapy with irinotecan.
The conditions of series [5]: in vivo.
For series [6] the following is noted: 2nd line.
Series [7] has as its system patients with AML who were treatment naïve yet unsuitable for induction therapy. To be noted: intravenously, in combination with LDAC.
The next series concerns AML. As to conditions: in combination with LDAC.

PLK1, sequence (P53350 whole entry): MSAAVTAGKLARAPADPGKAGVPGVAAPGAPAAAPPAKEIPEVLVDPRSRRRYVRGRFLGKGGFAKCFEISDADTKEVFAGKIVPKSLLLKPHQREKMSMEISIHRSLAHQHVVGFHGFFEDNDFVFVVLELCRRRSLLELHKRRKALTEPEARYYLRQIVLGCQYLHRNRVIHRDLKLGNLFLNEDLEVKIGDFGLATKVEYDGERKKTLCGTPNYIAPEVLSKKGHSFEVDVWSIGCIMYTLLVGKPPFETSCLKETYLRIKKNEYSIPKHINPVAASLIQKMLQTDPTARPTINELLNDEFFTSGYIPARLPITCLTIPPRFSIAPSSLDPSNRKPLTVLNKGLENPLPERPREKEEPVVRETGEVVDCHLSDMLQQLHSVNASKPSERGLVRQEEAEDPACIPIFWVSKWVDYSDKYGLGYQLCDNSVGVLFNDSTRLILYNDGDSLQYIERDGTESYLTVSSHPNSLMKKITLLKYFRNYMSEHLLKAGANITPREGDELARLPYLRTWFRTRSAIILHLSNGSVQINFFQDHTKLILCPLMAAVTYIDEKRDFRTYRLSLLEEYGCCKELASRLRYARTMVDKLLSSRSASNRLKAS

For the compound `CN1CCN(c2ccc(OC(F)(F)F)c(Nc3ncc4c(n3)-c3c(c(C(N)=O)nn3CCO)CC4)c2)CC1` [onvansertib, 1-(2-hydroxyethyl)-8-{[5-(4-methylpiperazin-1-yl)-2-(trifluoromethoxy)phenyl]amino}-4,5-dihydro-1H-pyrazolo[4,3-h]quinazoline-3-carboxamide], the primary dose-limiting toxicities result in [1] (in vivo) is “neutropenia and thrombocytopenia”. Also, the “recovery from hematologic toxicities” value in series [1] (reversible) is recorded as ≤ 3 weeks. In addition, the “specificity for PLK1 among a panel of 296 kinases, including other PLK members” value at PLK1 was “high specificity”. In the series with AML cell lines, the “concentrations inhibiting cell proliferation” value is listed as “nanomolar concentrations”. The tumor growth entry with xenograft models of AML was “inhibited”. Moreover, in series [2] (combination therapy with cytarabine), the survival of animals result is reported as “prolonged survival”. The cytarabine antitumor activity entry in series [2] (in combination with cytarabine) is recorded as “significantly increased”. The “activity in proliferation assays” value in series [3] is “low nanomolar activity”. Further, in the series with cancer cell lines, the cell-cycle effect entry is recorded as “mitotic cell-cycle arrest followed by apoptosis”. In addition, the xenograft tumor growth result with xenograft tumor was “inhibits xenograft tumor growth”. Besides, the “tumor regression compared to each agent alone” value in [4] is given as “enhanced tumor regression”. Moreover, in series [5], the oral bioavailability entry is given as “good oral bioavailability”.
Consider “bev: anti-angiogenics; Bevacizumab (also referred to herein as "bev")”, for which, in [6] (bev naïve), the mOS is given as 13.9 months and the mPFS was 6.9 months. Moreover, in series [6] (prior bev), the mOS is given as 12.5 months and the mPFS is on record as 6.7 months.
For the compound `CC[C@@H]1C(=O)N(C)c2cnc(Nc3ccc(C(=O)N[C@H]4CC[C@H](N5CCN(CC6CC6)CC5)CC4)cc3OC)nc2N1C(C)C` [volasertib (BI6727)], the “OS compared with LDAC alone” value in series [7] is “significant increase in OS”. Also, in the series with AML, the “benefit of the combination” value is on record as “no benefit” and the “risk of severe infections” value is “increased risk of severe infections”.
